Experimental data reported in paper PMC4152014, “Glucagon-Like Peptide-1 Receptor Ligand Interactions: Structural Cross Talk between Ligands and the Extracellular Domain” (PLoS ONE, 2014).
“Also recorded” adds a separate entry of the source.

How the values were obtained:
[1] = test system: nGLP-1R (N-terminal extracellular domain of GLP-1R, amino acids 24-145); test: Differential HDX of the nGLP-1R peptide […] in the presence of ligands; format: binding; conditions: HDX-MS; for average change in % Deuterium (Δ %D) in nGLP-1R peptide WETVQKWRE: 7TM HDX buffer pH 7.5 (50 mM Hepes, 150 mM NaCl, 2% glycerol, 0.05% DDM, 0.01% CHS), stock 10 µM nGLP-1R, peptide ligands 20 µM or small molecules 100 µM, 1 h equilibration at 4°C, on-exchange 10-3600 s, 80% D2O, 4°C, 3-4 replicates, back exchange corrected with estimated 70% recovery; for protection to exchange of nGLP-1R (result in words): peptides spanning Trp32 to Glu40 of nGLP-1R, DDM/CHS micelles, pH 7.5, 4°C, significance P < 0.05 at two consecutive time points
Excerpt: (§1) Exendin-4 (cat # E7144), HPLC grade H2O, D2O (99.9%), acetonitrile, formic acid, tris-(carboxyethyl)-phosphinehydrochloride (TCEP), NaCl, NaH2PO4 and glycerol were purchased from Sigma-Aldrich. Exendin-4[9-39] […] The GLP-1R ligands 6-BPPI (6-(2,5-dichlorobenzyl)-1-hydroxy-2-(2-morpholin-4-ylethyl)-1,6-dihydropyrrolo[3′,4′:5,6]pyrido[3,4-B]indol-3(2H)-one), Boc-5 [23], T-0632 (sodium (S)-3-[1-(2-fluorophenyl)-2,3-dihydro-3-[(3-isoquinolinyl-carbonyl)amino]-6-methoxy-2-oxo-1H-indole]propanoate), [25] and TT15 (2S)-2-[[(8S)-7-benzoyl-3-[4-[(3,4-dichlorophenyl)methoxy]phenyl]-2-oxo-1,6,8,9-tetrahydropyrido[4,3-g][1,4]benzoxazine-8-carbonyl]amino]-3-[4-(4-cyanophenyl)phenyl]propanoic acid) were synthesized according to standard or published methods at Eli Lilly. Trifluoroacetic acid (TFA, Sequanal grade) was obtained from Pierce. High purity n-dodecyl-β-D-maltoside (DDM) and cholesterol hemisuccinate (CHS) were purchased from Avanti Polar Lipids. The porcine pepsin-immobilized POROS 20 AL beads (particle size 20 µm) used to pack immobilized pepsin columns were purchased from Applied Biosystems. The model peptide for gas phase scrambling experiments, […], was purchased from the American Peptide Company (#350416).

[2] = test system: nGLP-1R (N-terminal extracellular domain of GLP-1R, amino acids 24-145); test: Differential HDX of peptide ligands in the presence vs absence of nGLP-1R; format: binding; conditions: HDX-MS, stock 10 µM peptide with or without 20 µM nGLP-1R, DDM/CHS micelles, pH 7.5, 4°C; for protection to exchange of ligand amides near helix bend / FxxWL motif upon binding nGLP-1R: 10-3600 s, protection confined from Ala18 to Asn28
Excerpt: as §1

[3] = pH 7.5
Procedure: All stock solutions and dilutions were made using the 7TM HDX buffer. The 7TM HDX buffers were composed of 50 mM Hepes (pH 7.5), 150 mM NaCl, 2% (v/v) glycerol, 0.05% (m/v) DDM, and 0.01% (m/v) CHS in either H2O or in D2O for on-exchange. All HDX stock solutions of the N-terminal extracellular domain of the glucagon-like peptide-1 receptor (nGLP-1R) were prepared at 10 µM nGLP-1R in the 7TM HDX H2O buffer. […] All HDX stock solutions of the peptides were at 10 µM. When ligands were studied in the presence of the nGLP-1R the stock solutions contained 20 µM nGLP-1R. When ligands and receptor were mixed in stock solutions they were allowed to equilibrate for one hour at 4°C.
Solution-phase amide HDX was carried out with a fully automated system described previously [17]. […]
Mass spectra were acquired in the range of m/z 300–2000 at a resolution of 60,000 for 8 min in positive ion mode on an LTQ Orbitrap XL ETD mass spectrometer (Thermo Fisher Scientific) equipped with an ESI source operated at capillary temperature of 225°C and spray voltage of 3.5 kV. The intensity weighted average m/z value (centroid) of each peptide's isotopic envelope was calculated with in-house developed software; Workbench (Pascal et al. 2013) and converted to % Deuterium values. […]

[4] = test system: extracellular domain of GLP-1R; conditions: cited from earlier work
[5] = test system: nGLP-1R (N-terminal extracellular domain of GLP-1R, amino acids 24-145); test: Single amino acid resolution HDX by ETD of Phe22-Ser39 peptic peptide; format: binding; conditions: DDM/CHS micelles
Procedure: To optimize the instrument parameters and to monitor gas-phase scrambling, we employed the model peptide […] described by the Jorgensen group. Complete deuteration was achieved by incubation of the peptide in deuterated buffer (20 mM NaH2PO4, pH 2.6) for one hour at 4°C. HDX off-exchange was initiated by a 10-fold dilution into infusion buffer (50% MeOH, 0.5 M CH3COOH, pH 2.6) followed by elution over the same LC configuration used for HDX after 30 s of off-exchange. Under these conditions the peptide eluted in ∼1.6 minutes. Full-scan and ETD MS/MS spectra were acquired on the LTQ Orbitrap XL ETD. Instrument conditions were identical to those published previously except the capillary temperature was set to 75°C. Varying isolation widths and capillary temperatures were tested to minimize scrambling and maintain ion signal intensity (Figure S3). A capillary temperature of 75°C and isolation width of 12 amu was used for ETD of exendin-4[9-39]. Five replicates were run after 30 s of deuterium exchange for exendin-4[9-39] in the presence and absence of nGLP-1R on the same LC configuration described above.

[6] = target: T1, wild-type GLP-1R (NP_002053) (Homo sapiens, UniProt P43220); test: cAMP accumulation in HEK293 cells transfected with wild-type GLP-1R; format: cell-based; conditions: for IC50: IC50, antagonism of GLP-1 induced cAMP accumulation
T1 construct: HEK293 cells were transfected with plasmids expressing either wild-type GLP-1R (NP_002053); expressed in transfected cells; host or cells: HEK293
T1 sequence (P43220 24-463): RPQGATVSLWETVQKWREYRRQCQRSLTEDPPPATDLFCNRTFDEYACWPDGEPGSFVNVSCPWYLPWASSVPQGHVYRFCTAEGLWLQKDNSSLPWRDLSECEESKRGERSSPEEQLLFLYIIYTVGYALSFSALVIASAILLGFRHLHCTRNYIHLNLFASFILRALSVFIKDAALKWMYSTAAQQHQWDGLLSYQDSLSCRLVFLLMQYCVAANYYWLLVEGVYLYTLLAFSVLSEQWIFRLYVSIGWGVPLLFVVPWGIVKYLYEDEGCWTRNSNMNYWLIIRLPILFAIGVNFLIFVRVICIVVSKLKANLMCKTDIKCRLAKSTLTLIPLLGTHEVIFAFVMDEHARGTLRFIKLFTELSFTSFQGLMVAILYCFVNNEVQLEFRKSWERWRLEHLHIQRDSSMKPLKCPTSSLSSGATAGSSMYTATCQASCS
Procedure: (§2) cAMP accumulation assays were performed as previously described. HEK293 cells were transfected with plasmids expressing either wild-type GLP-1R (NP_002053) or chimera nGIP-R:GLP-1R (amino acids 1-124 of GIP-R (NP_000155) fused in-frame with amino acids 137-463 of GLP-1R).
(§3) Figure 4 Changes to HDX of nGLP-1R in the Presence of Peptide and Small Molecule Ligands. […] Deuterium exchange was measured in the presence of DDM/CHS micelles as indicated in the Experimental section The exendin-4[9-39] peptide ligand is colored gray. B) Table showing the average change in % Deuterium in this same nGLP-1R peptide ([…]) for four peptide ligands and four proposed small molecule ligands.

[7] = test system: chimera nGIP-R:GLP-1R (amino acids 1-124 of GIP-R (NP_000155) fused in-frame with amino acids 137-463 of GLP-1R); test: cAMP accumulation in HEK293 cells transfected with chimera nGIP-R:GLP-1R; format: cell-based; conditions: GIPR/GLP-1R chimera, EC50 to EC80 concentrations of GLP-1
Procedure: as §2, §3

[8] = 30 s of exchange, apo vs nGLP-1R bound, 5 replicates

exendin-4: GLP-1R peptide agonist, Sigma-Aldrich cat # E7144; DPP4 resistant mimetic
average change in % Deuterium (Δ %D) in nGLP-1R peptide WETVQKWRE [1]: -21% | protection to exchange of nGLP-1R (result in words) [1]: significant protection to exchange | change in deuterium exchange at N-terminal amino acids His1 to Glu17 upon binding nGLP-1R [2]: no statistically significant change in the magnitude of deuterium exchange | protection to exchange of ligand amides near helix bend / FxxWL motif upon binding nGLP-1R [2]: showed protection to their hydrogen bonding network around the FxxWL motif | deuterium incorporation / stability of hydrogen bonding network of the free peptide [3]: Lower deuterium incorporation was observed for all homologous peptides | affinity for extracellular domain of GLP-1R (in words) [4]: high affinity

oxyntomodulin: peptide agonist, Bachem #H-6058
average change in % Deuterium (Δ %D) in nGLP-1R peptide WETVQKWRE [1]: -10% | protection to exchange of nGLP-1R (result in words) [1]: protection to exchange was observed

COc1cc(C2C(NC(=O)c3ccc(NC(=O)OC(C)(C)C)cc3)(C(=O)O)C(c3ccc(OC(=O)c4cccs4)c(OC)c3)C2(NC(=O)c2ccc(NC(=O)OC(C)(C)C)cc2)C(=O)O)ccc1OC(=O)c1cccs1 (centres unmarked) [Boc-5]
average change in % Deuterium (Δ %D) in nGLP-1R peptide WETVQKWRE [1]: -12% | protection to exchange of nGLP-1R (result in words) [1]: thermodynamic stabilizing interactions

exendin-4[9-39]: N-terminal truncated exendin-4, a potent antagonist; Bachem cat # H-8740
average change in % Deuterium (Δ %D) in nGLP-1R peptide WETVQKWRE [1]: -20% | protection to exchange of nGLP-1R (result in words) [1]: significant protection to exchange | protection to exchange of ligand amides near helix bend / FxxWL motif upon binding nGLP-1R [2]: showed protection to their hydrogen bonding network around the FxxWL motif | deuterium incorporation for fragments from Trp25 to Asn28, absence of nGLP-1R ([5]; 30 s of exchange, apo state, 5 replicates): increasing deuterium incorporation for fragments from Trp25 to Asn28 | change in deuterium incorporation at Asn28 turn in the presence of nGLP-1R [5, 8]: small but statistically significant increase in deuterium incorporation | protection at Trp25, Leu26 and Lys27 by nGLP-1R [5, 8]: Significant protection | deuterium exchanged at amide of Asn28 in the presence of nGLP-1R ([5]; exendin-4[9-39] with nGLP-1R, after 30 s of exchange, average of 5 replicates): 0.33 deuterium | deuterium incorporation / stability of hydrogen bonding network of the free peptide [3]: significantly destabilized in the presence of nonionic detergents as compared to the agonist exendin-4 | affinity for extracellular domain of GLP-1R (in words) [4]: high affinity

O=C1c2ncc3c(c2C(O)N1CCN1CCOCC1)c1ccccc1n3Cc1cc(Cl)ccc1Cl (centres unmarked) [6-BPPI, 6-(2,5-dichlorobenzyl)-1-hydroxy-2-(2-morpholin-4-ylethyl)-1,6-dihydropyrrolo[3′,4′:5,6]pyrido[3,4-B]indol-3(2H)-one]
average change in % Deuterium (Δ %D) in nGLP-1R peptide WETVQKWRE [1]: -27% | protection to exchange of nGLP-1R (result in words) [1]: thermodynamic stabilizing interactions | antagonism of GLP-1 signalling (result in words) ([6]; HEK293 cells, EC50 to EC80 concentrations of GLP-1): Dose-dependent blockade of GLP-1R signalling; also recorded: effective antagonist of the GLP-1R | IC50 ([6]; 10 pM GLP-1, HEK293 cells): 33 nM | IC50 ([6]; 30 pM GLP-1, HEK293 cells): 110 nM | IC50 ([6]; 100 pM GLP-1, HEK293 cells): 310 nM | antagonism of GLP-1 signalling (result in words) [7]: not GIPR/GLP-1R; also recorded: inactive on a chimeric receptor
